Results from PMC7686313, “Phase 1 study of mTORC1/2 inhibitor sapanisertib (TAK-228) in advanced solid tumours, with an expansion phase in renal, endometrial or bladder cancer” (British Journal of Cancer, 2020).

Key:
[1] = tested on: p4EBP1, pS6, pPRAS40 and pNDRG1 (TORC1/2 biomarkers); assay: Pharmacodynamics in paired tumour biopsies; type: in vivo, human; details: five patients with paired tumour samples; baseline vs cycle 1, week 2
Experimental: The tissue PK and PD of sapanisertib were investigated in skin and tumour biopsies. During dose escalation, 3-mm core skin biopsies were collected predose and on any day from 8–15 (3 h postdose) of cycle 1 for immunohistochemistry (IHC) assessment of mTORC1 downstream effects (p4EBP1, pS6) and pNDRG1 (Mosaic Laboratories, Lake Forest, CA). […] Archival tumour tissues for assessment of prognostic markers were collected at baseline.
During dose-escalation, the PD effect of sapanisertib on downstream effectors of TORC1 (p4EBP1 and pS6) and TORC2 (pPRAS40 and pNDRG1) was measured in skin-tissue biopsies from 88 patients collected at baseline and days 8–15 (3 h postdose) of cycle 1. […] PD data in tumour tissue were limited due to the small number of samples. For the five patients with paired tumour samples available for review (biopsies at baseline and cycle 1, week 2), the levels of p4EBP1, pS6, pPRAS40 and pNDRG1 decreased after sapanisertib treatment (Supplementary Fig. 4).

[2] = tested on: refractory clear-cell RCC; parameters: method as in earlier work; details: single-agent 30 mg QW; cited from earlier work
endometrial cancer = assay: Tumour response according to RECIST v1.1, expansion phase, endometrial cancer; type: in vivo, human; details: expansion Endometrial cancer (n = 18)
Excerpt: Patients could be considered for enrolment in one of three disease-specific cohorts: (1) advanced or recurrent endometrial adenocarcinoma with disease progression following ≥1 prior chemotherapy regimen; (2) advanced/metastatic urothelial cancer (carcinoma of the bladder, ureter and/or renal pelvis), progressive after ≥1 prior therapy in the metastatic/unresectable setting; (3) advanced RCC after failure of ≥1 prior antivascular endothelial growth factor therapy with no prior TORC1 inhibitor therapy, or progressed on treatment with TORC1 inhibitor therapy.

CC(C)n1nc(-c2ccc3oc(N)nc3c2)c2c(N)ncnc21 [Sapanisertib]
Levels of p4EBP1, pS6, pPRAS40 and pNDRG1 in tumour [1]: decreased | Responses [2]: no responses | Best overall response CR (endometrial cancer): 0 n (%) | Best overall response PD (endometrial cancer): 8 (44) n (%) | Best overall response PR (endometrial cancer): 1 (6) n (%) | Best overall response SD < 6 months (endometrial cancer): 8 (44) n (%) | Best overall response SD ≥ 6 months (endometrial cancer): 0 n (%) | CBR (CR + PR + SD ≥ 6 months) (endometrial cancer): 1 (6) n (%) | ORR (CR + PR) (endometrial cancer): 1 (6) n (%)
